Active and inactive are the calls of the source. The calls are words filed in the database; no cut-off is given here.
Tests used:
Plasma [1] = assay: Induction of platelet aggregation in human platelet rich plasma at plasma peak concentration of 10 times anti-thrombosis ED50 measured after 10 mins by light transmission aggregometry
[2] = target: Prothrombin (Homo sapiens) (UniProt P00734); assay: Inhibition of factor 2a (unknown origin) at IC50 preincubated for 1 min followed by chromogenic substrate addition and measured for 2 mins; details: time 3.0 min
[3] = target: T1, Coagulation factor VII (Homo sapiens) (UniProt P08709); assay: Inhibition of factor 7a (unknown origin) at IC50 using pefachrome factor VIIa as substrate preincubated for 1 min followed by chromogenic substrate addition and measured for 2 mins; details: time 3.0 min
T1 sequence (whole entry): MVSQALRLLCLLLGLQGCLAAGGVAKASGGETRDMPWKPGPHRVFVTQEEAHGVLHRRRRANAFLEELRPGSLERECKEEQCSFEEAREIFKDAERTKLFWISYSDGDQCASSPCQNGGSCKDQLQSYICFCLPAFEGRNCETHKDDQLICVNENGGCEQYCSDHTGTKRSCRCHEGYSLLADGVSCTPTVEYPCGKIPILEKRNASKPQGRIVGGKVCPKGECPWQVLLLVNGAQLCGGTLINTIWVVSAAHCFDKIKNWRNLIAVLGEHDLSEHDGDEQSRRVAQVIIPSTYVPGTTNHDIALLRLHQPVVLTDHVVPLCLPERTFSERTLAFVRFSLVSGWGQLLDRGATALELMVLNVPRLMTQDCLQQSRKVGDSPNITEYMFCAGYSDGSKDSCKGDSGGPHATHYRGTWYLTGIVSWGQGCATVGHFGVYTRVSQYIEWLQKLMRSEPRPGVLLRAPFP

[4] = target: Coagulation factor X (Homo sapiens) (UniProt P00742); assay: Inhibition of factor 10a (unknown origin) at IC50 preincubated for 1 min followed by chromogenic substrate addition and measured for 2 mins; details: time 3.0 min
Coagulation factor X (Homo sapiens), sequence (P00742 41-179 limits assumed): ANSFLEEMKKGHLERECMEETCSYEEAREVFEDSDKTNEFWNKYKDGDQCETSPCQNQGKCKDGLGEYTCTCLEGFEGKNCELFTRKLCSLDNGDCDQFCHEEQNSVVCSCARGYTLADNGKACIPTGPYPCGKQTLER
Coagulation factor X (Homo sapiens), sequence (P00742 235-488 limits assumed): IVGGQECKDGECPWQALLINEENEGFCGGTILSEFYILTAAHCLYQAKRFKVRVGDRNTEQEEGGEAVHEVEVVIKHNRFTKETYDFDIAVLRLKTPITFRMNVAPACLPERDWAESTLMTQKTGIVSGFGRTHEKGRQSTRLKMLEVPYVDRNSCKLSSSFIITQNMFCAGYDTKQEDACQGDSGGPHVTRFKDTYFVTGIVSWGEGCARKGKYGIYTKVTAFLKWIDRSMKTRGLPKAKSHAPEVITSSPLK

[5] = target: Coagulation factor XI (Homo sapiens) (UniProt P03951); assay: Inhibition of factor 11a (unknown origin) at IC50 using S-2366 as substrate preincubated for 1 min followed by chromogenic substrate addition and measured for 2 mins; details: time 3.0 min
Coagulation factor XI (Homo sapiens), sequence (P03951 19-387 limits assumed): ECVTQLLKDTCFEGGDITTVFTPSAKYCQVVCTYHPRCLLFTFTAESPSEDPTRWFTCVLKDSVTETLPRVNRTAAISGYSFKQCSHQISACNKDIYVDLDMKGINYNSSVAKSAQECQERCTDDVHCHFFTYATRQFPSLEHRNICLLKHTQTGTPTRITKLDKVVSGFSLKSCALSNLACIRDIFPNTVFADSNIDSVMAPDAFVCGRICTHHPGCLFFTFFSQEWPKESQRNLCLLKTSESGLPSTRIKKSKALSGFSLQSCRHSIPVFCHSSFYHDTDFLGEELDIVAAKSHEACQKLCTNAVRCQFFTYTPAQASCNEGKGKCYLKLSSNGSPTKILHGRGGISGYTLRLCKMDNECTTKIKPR
Coagulation factor XI (Homo sapiens), sequence (P03951 388-625 limits assumed): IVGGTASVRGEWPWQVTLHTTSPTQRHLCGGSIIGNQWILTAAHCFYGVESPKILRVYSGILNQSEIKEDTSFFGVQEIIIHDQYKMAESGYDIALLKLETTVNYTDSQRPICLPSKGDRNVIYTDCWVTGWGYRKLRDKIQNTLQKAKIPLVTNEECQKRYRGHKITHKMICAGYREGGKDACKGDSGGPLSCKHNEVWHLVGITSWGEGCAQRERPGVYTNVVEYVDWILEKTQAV

[6] = target: T2, Coagulation factor XII (Homo sapiens) (UniProt P00748); assay: Inhibition of factor 12a (unknown origin) at IC50 using kallikrein chromogenic substrate preincubated for 1 min followed by chromogenic substrate addition and measured for 2 mins; details: time 3.0 min
T2 sequence (whole entry): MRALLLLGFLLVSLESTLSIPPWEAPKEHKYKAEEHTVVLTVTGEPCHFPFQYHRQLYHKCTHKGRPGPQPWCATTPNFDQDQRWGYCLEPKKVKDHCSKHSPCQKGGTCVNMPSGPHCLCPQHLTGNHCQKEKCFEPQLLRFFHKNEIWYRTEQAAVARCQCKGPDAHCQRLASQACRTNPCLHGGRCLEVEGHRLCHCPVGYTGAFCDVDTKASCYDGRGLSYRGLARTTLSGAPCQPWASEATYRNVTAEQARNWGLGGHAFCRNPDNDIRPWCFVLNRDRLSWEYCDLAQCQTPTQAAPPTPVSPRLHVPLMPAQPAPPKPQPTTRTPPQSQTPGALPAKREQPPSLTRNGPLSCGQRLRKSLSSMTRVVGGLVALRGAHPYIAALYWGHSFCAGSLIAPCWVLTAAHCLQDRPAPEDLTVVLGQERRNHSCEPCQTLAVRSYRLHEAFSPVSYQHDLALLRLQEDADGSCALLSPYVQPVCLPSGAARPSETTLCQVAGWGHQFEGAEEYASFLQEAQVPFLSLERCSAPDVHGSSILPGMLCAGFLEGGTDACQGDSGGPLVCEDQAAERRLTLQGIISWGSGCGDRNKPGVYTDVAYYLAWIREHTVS

[7] = target: Prothrombin (Homo sapiens) (UniProt P00734); assay: Inhibition of factor 2a (unknown origin) at IC50 preincubated for 1 min followed by chromogenic substrate addition and measured for 2 mins in presence of AT-III; details: time 3.0 min
[8] = target: T1, Coagulation factor VII (Homo sapiens); assay: Inhibition of factor 7a (unknown origin) at IC50 using pefachrome factor VIIa as substrate preincubated for 1 min followed by chromogenic substrate addition and measured for 2 mins in presence of AT-III; details: time 3.0 min
[9] = target: Coagulation factor X (Homo sapiens) (UniProt P00742); assay: Inhibition of factor 10a (unknown origin) at IC50 preincubated for 1 min followed by chromogenic substrate addition and measured for 2 mins in presence of AT-III; details: time 3.0 min
[10] = target: Coagulation factor XI (Homo sapiens) (UniProt P03951); assay: Inhibition of factor 11a (unknown origin) at IC50 using S-2366 as substrate preincubated for 1 min followed by chromogenic substrate addition and measured for 2 mins in presence of AT-III; details: time 3.0 min
[11] = target: T2, Coagulation factor XII (Homo sapiens); assay: Inhibition of factor 12a (unknown origin) at IC50 using kallikrein chromogenic substrate preincubated for 1 min followed by chromogenic substrate addition and measured for 2 mins in presence of AT-III; details: time 3.0 min
[12] = target: Prothrombin (Homo sapiens) (UniProt P00734); assay: Inhibition of factor 2a (unknown origin) at IC90 preincubated for 1 min followed by chromogenic substrate addition and measured for 2 mins in presence of AT-III; details: time 3.0 min
[13] = target: Coagulation factor XI (Homo sapiens) (UniProt P03951); assay: Inhibition of factor 11a (unknown origin) at IC90 using S-2366 as substrate preincubated for 1 min followed by chromogenic substrate addition and measured for 2 mins in presence of AT-III; details: time 3.0 min
[14] = target: Coagulation factor X (Homo sapiens) (UniProt P00742); assay: Inhibition of factor 10a (unknown origin) at IC90 preincubated for 1 min followed by chromogenic substrate addition and measured for 2 mins in presence of AT-III relative to control; details: time 3.0 min
Plasma [15] = assay: Induction of platelet aggregation in rat wash platelet at plasma peak concentration of 10 times anti-thrombosis ED50 measured after 10 mins by light transmission aggregometry
Plasma [16] = assay: (§1) Anticoagulation activity in human plasma assessed as drug level causing 20 times doubling of APTT preincubated for 2 mins followed by APTT reagent and measured after 3 mins by coagulometric method relative to dHG-5; format: functional; details: time 5 min
[17] = target: T3, Coagulation factor IX/VIII (Homo sapiens) (UniProt P00740+P00451); assay: (§2) Inhibition of human citrated plasma iXase (factor 8a-factor 9a complex) preincubated for 2 mins followed by factor 10 addition and measured after 1 min by FXa chromogenic substrate SXa-11 based assay relative to dHG-5; format: protein-complex assay; details: time 3.0 min
Coagulation factor IX [18] = target: T4, Coagulation factor IX (Homo sapiens, UniProt P00740); assay: Inhibition of factor 9a (unknown origin) binding to immobilized biotinylated oHG-11 by biolayer interferometry relative to dHG-5
T4 sequence (P00740 47-191 limits assumed): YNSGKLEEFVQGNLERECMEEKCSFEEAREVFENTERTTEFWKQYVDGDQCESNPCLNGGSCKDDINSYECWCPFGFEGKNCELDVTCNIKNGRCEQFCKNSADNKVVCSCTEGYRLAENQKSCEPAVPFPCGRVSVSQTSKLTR
T4 sequence (P00740 227-461 limits assumed): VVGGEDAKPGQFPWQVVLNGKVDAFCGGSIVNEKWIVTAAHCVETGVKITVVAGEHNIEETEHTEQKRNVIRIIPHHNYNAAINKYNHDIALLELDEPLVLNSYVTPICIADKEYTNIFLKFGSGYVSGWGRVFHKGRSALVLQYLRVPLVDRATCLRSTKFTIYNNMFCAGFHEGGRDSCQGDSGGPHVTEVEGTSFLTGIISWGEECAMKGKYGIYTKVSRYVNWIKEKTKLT

Rattus norvegicus [19] = assay: (§3) Antithrombotic activity in thromboplastin and stasis-induced Sprague-Dawley rat deep venous thrombosis model assessed as reduction in venous thrombosis at 2.7 mg/kg, sc administered 1 hr prior to thromboplastin addition for 20 secs followed by establishment of stasis for 20 mins relative to dHG-5; format: functional; details: time 80.33 min, 1.339 h
Plasma [20] = assay: as §1, with “of APTT by measuring activity potency of oligosaccharides multiplied by the percentage of oligosaccharides in dHG-5 preincubated for” for “of APTT preincubated for”; format: functional; details: time 5 min
[21] = target: T3, Coagulation factor IX/VIII (Homo sapiens); assay: as §2, with “complex) assessed as activity potency of oligosaccharides multiplied by the percentage of oligosaccharides in dHG-5” for “complex)”; format: protein-complex assay; details: time 3.0 min
Coagulation factor IX [22] = target: T4, Coagulation factor IX; assay: Inhibition of factor 9a (unknown origin) binding to immobilized biotinylated oHG-11 assessed as activity potency of oligosaccharides multiplied by the percentage of oligosaccharides in dHG-5 by biolayer interferometry relative to dHG-5
Rattus norvegicus [23] = assay: as §3, with “venous thrombosis by measuring activity potency of oligosaccharides multiplied by the percentage of oligosaccharides in dHG-5 at 2.7” for “venous thrombosis at 2.7”; format: functional; details: time 80.33 min, 1.339 h

Activity (Plasma [1]): Not Active | inhibition [2]: inactive | inhibition (active/not active) [3]: inactive | inhibition [4]: inactive | inhibition [5]: inactive | inhibition [6]: inactive | inhibition [7]: inactive | inhibition [8]: inactive | inhibition [9]: inactive | inhibition [10]: inactive | inhibition [11]: inactive | inhibition [12]: Active | inhibition [13]: Active | inhibition [14]: 14.2% | Activity (Plasma [15]): Not Active | Ratio [17]: 51.8 U | Ratio (Coagulation factor IX [18]): 35.9 U | Ratio [21]: 8.26 U | Ratio (Coagulation factor IX [22]): 5.72 U
SMILES: CC(=O)N[C@H]1[C@H](O[C@@H]([C@H](O[C@@H]2O[C@@H](C)[C@@H](OS(=O)(=O)[O-])[C@@H](OS(=O)(=O)O)[C@@H]2O)[C@@H](O)CO)[C@H](O)C(=O)[O-])O[C@H](COS(=O)(=O)[O-])[C@H](OS(=O)(=O)[O-])[C@@H]1O[C@@H]1O[C@H](C(=O)[O-])[C@@H](O[C@@H]2O[C@H](COS(=O)(=O)[O-])[C@H](OS(=O)(=O)[O-])[C@H](O[C@@H]3O[C@H](C(=O)[O-])[C@@H](O[C@@H]4O[C@H](COS(=O)(=O)[O-])[C@H](OS(=O)(=O)[O-])[C@H](O[C@@H]5O[C@H](C(=O)[O-])[C@@H](O[C@@H]6O[C@H](COS(=O)(=O)[O-])[C@H](OS(=O)(=O)[O-])[C@H](O[C@@H]7OC(C(=O)[O-])=C[C@H](O[C@@H]8O[C@@H](C)[C@@H](OS(=O)(=O)[O-])[C@@H](OS(=O)(=O)O)[C@@H]8O)[C@H]7O)[C@H]6NC(C)=O)[C@H](O[C@@H]6O[C@@H](C)[C@@H](OS(=O)(=O)[O-])[C@@H](OS(=O)(=O)O)[C@@H]6O)[C@H]5O)[C@H]4NC(C)=O)[C@H](O[C@@H]4O[C@@H](C)[C@@H](OS(=O)(=O)[O-])[C@@H](OS(=O)(=O)O)[C@@H]4O)[C@H]3O)[C@H]2NC(C)=O)[C@H](O[C@@H]2O[C@@H](C)[C@@H](OS(=O)(=O)[O-])[C@@H](OS(=O)(=O)O)[C@@H]2O)[C@H]1O.[Na+].[Na+].[Na+].[Na+].[Na+].[Na+].[Na+].[Na+].[Na+].[Na+].[Na+].[Na+].[Na+].[Na+].[Na+].[Na+].[Na+].[Na+]
Ratio (Plasma [16]): 61.09 U | Ratio (Rattus norvegicus [19]): 113.95 U | Ratio (Plasma [20]): 9.73 U | Ratio (Rattus norvegicus [23]): 18.12 U

— ChEMBL document CHEMBL4765450, “The components and activities analysis of a novel anticoagulant candidate dHG-5” (Eur J Med Chem, 2020)
